PMC9098913, “In vitro reconstitution of Escherichia coli divisome activation” (Nature Communications, 2022)

Test system: FtsA self-interaction
Experiment: FRET self-interaction of His-tagged FtsAs (and His-SUMO control) on Tris-NTA membranes
Assay type: binding, E. coli
Method: To study colocalization of His-tagged variants of FtsA, 0.5–1 µM of Cy5 labelled His-tagged FtsAs were added to the chamber, incubated for 20 min and washed 6x with reaction buffer. […] To control the density of membrane-bound FtsA, SUVs without and with Tris-NTA lipids were mixed to obtain the respective Tris-NTA concentrations. To perform FRET/FRAP experiments, equimolar concentrations of Cy3 and Cy5 labelled His-tagged FtsAs (total 0.5–1 µM) or His-SUMO-Cys were added to a chamber and treated as above. […] FRAP experiments were performed as described before.
Bleaching the acceptor dye leads to an increase in the donor intensity, which can be used to quantify the Foerster Resonance energy transfer (FRET)[48]. FRET efficiency was quantified with E%=Ipost/Ipost+Ipre⋅100 , where Ipost is the intensity of the […] and Ipre is the […]. […] To extract the contribution of both processes, we adjusted a routine recently published by Gerganova et al.[33]. In short, the code provides the contribution of both modes of recovery by analysing the shape of the fluorescence recovery profile. […] Contribution of diffusion leads to a change of the slope of the outer borders of the bleached region (S4h right). Thus, by measuring the change of the slope of the border recovery, diffusion and simple on/off binding can be distinguished. We developed “FRAPdiff”, a graphical user interface, which uses the original fit routine by David Rutkowski. It can be used directly on.tiff movies with annotated bleach regions as ImageJ ROIs. In addition, we added optional bleach correction, user selectable projection axis (x or y), and optional mirroring of the recovery profiles, if bleaching was not symmetric. The original fit routine for estimating the recovery and diffusion dynamics can be found at https://github.com/davidmrutkowski/1DReflectingDiffusion. FRAPdiff is available at 10.5281/zenodo.6400639[49] under the GPLv3 open-source license.

“FtsA-His6: FtsA WT (1-405) with amphipathic helix replaced by C-terminal His-tag” was tested, and the FRET efficiency (0.1% Tris NTA, + FtsZ; Exp1) was 3.78%, the FRET efficiency (0.1% Tris NTA, + FtsZ; Exp2) was 0.99% and the FRET efficiency (0.1% Tris NTA, + FtsZ; mean, n = 2) was 2.39%. The FRET efficiency (0.1% Tris NTA, without FtsZ; Exp1) was 3.14%, the FRET efficiency (0.1% Tris NTA, without FtsZ; Exp2) was 0.59% and the FRET efficiency (0.1% Tris NTA, without FtsZ; mean, n = 2) was 1.87%. The FRET efficiency (0.4% Tris NTA; + FtsZ; Exp1) was 6.34%, the FRET efficiency (0.4% Tris NTA; + FtsZ; Exp2) was 13.91% and the FRET efficiency (0.4% Tris NTA; + FtsZ; Mean, n = 2) was 10.12%. For the same substance, the FRET efficiency (0.4% Tris NTA; without FtsZ; Exp1) was 8.25%, the FRET efficiency (0.4% Tris NTA; without FtsZ; Exp2) was 10.75% and the FRET efficiency (0.4% Tris NTA; without FtsZ; Mean, n = 2) was 9.50%. The FRET efficiency (0.6% Tris NTA; + FtsZ; Exp1) was 12.72%, the FRET efficiency (0.6% Tris NTA; + FtsZ; Exp2) was 16.89% and the FRET efficiency (0.6% Tris NTA; + FtsZ; Exp3) was 21.31%. It also gave an FRET efficiency (0.6% Tris NTA; + FtsZ; Mean, n = 3) of 16.97%, an FRET efficiency (0.6% Tris NTA; without FtsZ; Exp1) of 13.98% and an FRET efficiency (0.6% Tris NTA; without FtsZ; Exp2) of 15.14%. For the same substance, the FRET efficiency (0.6% Tris NTA; without FtsZ; Exp3) was 19.21%, the FRET efficiency (0.6% Tris NTA; without FtsZ; Mean, n = 3 (His6-SUMO n = 2)) was 16.11% and the FRET efficiency (0.8% Tris NTA; + FtsZ; Exp1) was 13.61%. For the same substance, the FRET efficiency (0.8% Tris NTA; + FtsZ; Exp2) was 19.13%, the FRET efficiency (0.8% Tris NTA; + FtsZ; Exp3) was 15.44% and the FRET efficiency (0.8% Tris NTA; + FtsZ; Mean, n = 3) was 16.06%. The FRET efficiency (0.8% Tris NTA; without FtsZ; Exp1) was 14.15%, the FRET efficiency (0.8% Tris NTA; without FtsZ; Exp2) was 18.41% and the FRET efficiency (0.8% Tris NTA; without FtsZ; Exp3) was 13.88%. It also gave an FRET efficiency (0.8% Tris NTA; without FtsZ; Mean, n = 3 (His6-SUMO n = 2)) of 15.48%, an FRET efficiency (1% Tris NTA; + FtsZ; Exp1) of 18.34% and an FRET efficiency (1% Tris NTA; + FtsZ; Exp2) of 21.19%. For the same substance, the FRET efficiency (1% Tris NTA; + FtsZ; Exp3) was 19.01%, the FRET efficiency (1% Tris NTA; + FtsZ; Mean, n = 3 (R286W-His6 n = 4)) was 19.51% and the FRET efficiency (1% Tris NTA; without FtsZ; Exp1) was 16.93%. It also gave an FRET efficiency (1% Tris NTA; without FtsZ; Exp2) of 19.88%, an FRET efficiency (1% Tris NTA; without FtsZ; Exp3) of 16.24% and an FRET efficiency (1% Tris NTA; without FtsZ; Mean, n = 3 (R286W-His6 n = 4)) of 17.68%. For the same substance, the FRET efficiency (2% Tris NTA; + FtsZ; Exp1) was 32.05%, the FRET efficiency (2% Tris NTA; + FtsZ; Exp2) was 31.95% and the FRET efficiency (2% Tris NTA; + FtsZ; Mean, n = 2) was 32.00%. For the same substance, the FRET efficiency (2% Tris NTA; without FtsZ; Exp1) was 32.49%, the FRET efficiency (2% Tris NTA; without FtsZ; Exp2) was 23.34% and the FRET efficiency (2% Tris NTA; without FtsZ; Mean, n = 2) was 27.92%. It also gave an FRET efficiency (Tris 0.40 %, + FtsZ; mean) of 10.12%, an FRET efficiency (Tris 0.40 %, without FtsZ; mean) of 9.50% and an FRET efficiency (Tris 0.60 %, + FtsZ; mean) of 16.97%. For the same substance, the FRET efficiency (Tris 0.60 %, without FtsZ; mean) was 16.11%, the FRET efficiency (Tris 0.80 %, + FtsZ; mean) was 16.06% and the FRET efficiency (Tris 0.80 %, without FtsZ; mean) was 15.48%. For the same substance, the FRET efficiency (Tris 1.00 %, + FtsZ; mean) was 19.51%, the FRET efficiency (Tris 1.00 %, without FtsZ; mean) was 17.68% and the FRET efficiency (Tris 2.00 %, + FtsZ; mean) was 32.00%. It also gave an FRET efficiency (Tris 2.00 %, without FtsZ; mean) of 27.92%, an FRET efficiency (Tris […], + FtsZ; mean) of 28.93% and an FRET efficiency (Tris […], without FtsZ; mean) of 25.95%. It also gave an FRET efficiency ([…] Tris NTA, + FtsZ; Exp1) of 2.38%, an FRET efficiency ([…] Tris NTA, + FtsZ; Exp2) of 10.40% and an FRET efficiency ([…] Tris NTA, + FtsZ; mean, n = 2) of 6.39%. The FRET efficiency ([…] Tris NTA, without FtsZ; Exp1) was 3.80%, the FRET efficiency ([…] Tris NTA, without FtsZ; Exp2) was 9.45% and the FRET efficiency ([…] Tris NTA, without FtsZ; mean, n = 2; listed as FtsA WT-His6) was 6.62%. The FRET efficiency ([…] Tris NTA, without FtsZ; mean, n = 2; listed as WT-His6) was 6.63%, the FRET efficiency ([…] Tris NTA; + FtsZ; Exp1) was 34.73% and the FRET efficiency ([…] Tris NTA; + FtsZ; Exp2) was 27.23%. It also gave an FRET efficiency ([…] Tris NTA; + FtsZ; Exp3) of 24.81%, an FRET efficiency ([…] Tris NTA; + FtsZ; Mean, n = 3) of 28.93% and an FRET efficiency ([…] Tris NTA; without FtsZ; Exp1) of 28.26%. For the same substance, the FRET efficiency ([…] Tris NTA; without FtsZ; Exp2) was 26.94%, the FRET efficiency ([…] Tris NTA; without FtsZ; Exp3) was 22.66% and the FRET efficiency ([…] Tris NTA; without FtsZ; Mean, n = 3) was 25.95%. For the same substance, the FRET efficiency ([…] Tris-NTA; + N (FtsNcyto); mean) was 26.95%, the FRET efficiency ([…] Tris-NTA; + N/Z (FtsNcyto and FtsZ); mean) was 24.12% and the FRET efficiency ([…] Tris-NTA; + N/Z; Exp. 1) was 22.20%. For the same substance, the FRET efficiency ([…] Tris-NTA; + N/Z; Exp. 2) was 29.86%, the FRET efficiency ([…] Tris-NTA; + N/Z; Exp. 3) was 20.31% and the FRET efficiency ([…] Tris-NTA; + N; Exp. 1) was 28.94%. For the same substance, the FRET efficiency ([…] Tris-NTA; + N; Exp. 2) was 24.96%, the FRET efficiency ([…] Tris-NTA; + N; Exp. 3) was 26.96% and the FRET efficiency ([…] Tris-NTA; + Z (FtsZ); mean) was 27.70%. The FRET efficiency ([…] Tris-NTA; + Z; Exp. 1) was 34.73%, the FRET efficiency ([…] Tris-NTA; + Z; Exp. 2) was 27.23% and the FRET efficiency ([…] Tris-NTA; + Z; Exp. 3) was 24.81%. For the same substance, the FRET efficiency ([…] Tris-NTA; + Z; Exp. 4) was 24.02%, the FRET efficiency ([…] Tris-NTA; alone; Exp. 1) was 28.26% and the FRET efficiency ([…] Tris-NTA; alone; Exp. 2) was 26.94%. It also gave an FRET efficiency ([…] Tris-NTA; alone; Exp. 3) of 22.66%, an FRET efficiency ([…] Tris-NTA; alone; Exp. 4) of 20.84% and an FRET efficiency ([…] Tris-NTA; alone; mean) of 24.68%.
